{"source": "paper PMC9516332", "about": "(Frontiers in Oncology, 2022)", "key": {"134 cancer cell lines [1]": {"system": "134 cancer cell lines", "test": "Cell viability assay (ATPlite, 72 hours), IC50 on cancer cell line panel"}, "134 cancer cell lines [2]": {"system": "134 cancer cell lines"}}, "note": "Read-outs that look alike come from different tables or passages of the source."}
{"smiles": "CN1CCN(c2ccc(C(=O)Nc3n[nH]c4ccc(Cc5cc(F)cc(F)c5)cc34)c(NC3CCOCC3)c2)CC1", "note": "[entrectinib]", "values": [{"measurement": "IC50", "setting": "134 cancer cell lines [1]; Homo sapiens, MV4-11, read-out: IC50 in cell proliferation assay, MV4-11 cell line (FLT3 ITD)", "result": 0.281, "unit": "µM"}, {"measurement": "IC50", "setting": "134 cancer cell lines [1]; Homo sapiens, MeWo, read-out: IC50 in cell proliferation assay, MeWo cell line", "result": 10.1, "unit": "µM"}, {"measurement": "IC50", "setting": "134 cancer cell lines [1]; Homo sapiens, NCCIT, read-out: IC50 in cell proliferation assay, NCC-IT cell line", "result": 6.38, "unit": "µM"}, {"measurement": "IC50", "setting": "134 cancer cell lines [1]; Homo sapiens, NCI-H82, read-out: IC50 in cell proliferation assay, cell line NCI-H82", "result": 9.7, "unit": "µM"}, {"measurement": "IC50", "setting": "134 cancer cell lines [1]; Homo sapiens, NCI-H460, read-out: IC50 in cell proliferation assay, NCI-H460 cell line", "result": 9.99, "unit": "µM"}, {"measurement": "IC50", "setting": "134 cancer cell lines [1]; Homo sapiens, NCI-H661, read-out: IC50 in cell proliferation assay, NCI-H661 cell line", "result": 4.03, "unit": "µM"}, {"measurement": "IC50", "setting": "134 cancer cell lines [1]; Homo sapiens, NCI-H716, read-out: IC50 in cell proliferation assay, cell line NCI-H716 (FGFR2-COL14A1)", "result": 1.46, "unit": "µM"}, {"measurement": "IC50", "setting": "134 cancer cell lines [1]; Homo sapiens, NCI-H1650, read-out: IC50 in cell proliferation assay, NCI-H1650 cell line (EGFR exon19del)", "result": 2.44, "unit": "µM"}, {"measurement": "IC50", "setting": "134 cancer cell lines [1]; Homo sapiens, NCI-H1975, read-out: IC50 in cell proliferation assay, NCI-H1975 cell line (EGFR p.L858R + p.T790M)", "result": 4.15, "unit": "µM"}, {"measurement": "IC50", "setting": "134 cancer cell lines [1]; Homo sapiens, NCI-H2228, read-out: IC50 in cell proliferation assay, NCI-H2228 cell line (EML4-ALK)", "result": 0.196, "unit": "µM"}, {"measurement": "IC50", "setting": "134 cancer cell lines [1]; Homo sapiens, OVCAR-3, read-out: IC50 in cell proliferation assay, cell line OVCAR-3", "result": 8.35, "unit": "µM"}, {"measurement": "IC50", "setting": "134 cancer cell lines [1]; Homo sapiens, PFSK-1, read-out: IC50 in cell proliferation assay, cell line PFSK-1", "result": 7.82, "unit": "µM"}, {"measurement": "IC50", "setting": "134 cancer cell lines [1]; Homo sapiens, RL95-2, read-out: IC50 in cell proliferation assay, cell line RL95-2 (EGFR p.A289V)", "result": 3.32, "unit": "µM"}, {"measurement": "IC50", "setting": "134 cancer cell lines [1]; Homo sapiens, RPMI-7951, read-out: IC50 in cell proliferation assay, cell line RPMI-7951 (BRAF p.V600E)", "result": 4.02, "unit": "µM"}, {"measurement": "IC50", "setting": "134 cancer cell lines [1]; Homo sapiens, RS4-11, read-out: IC50 in cell proliferation assay, cell line RS4;11", "result": 8.24, "unit": "µM"}, {"measurement": "IC50", "setting": "134 cancer cell lines [1]; Homo sapiens, Rec1, read-out: IC50 in cell proliferation assay, cell line REC-1", "result": 5.02, "unit": "µM"}, {"measurement": "IC50", "setting": "134 cancer cell lines [1]; Homo sapiens, SHP77, read-out: IC50 in cell proliferation assay, cell line SHP-77", "result": 12.7, "unit": "µM"}, {"measurement": "IC50", "setting": "134 cancer cell lines [1]; Homo sapiens, SK-BR-3, read-out: IC50 in cell proliferation assay, cell line SK-BR-3 (ERBB2 amplification)", "result": 11.1, "unit": "µM"}, {"measurement": "IC50", "setting": "134 cancer cell lines [1]; Homo sapiens, SK-N-AS, read-out: IC50 in cell proliferation assay, cell line SK-N-AS", "result": 5.34, "unit": "µM"}, {"measurement": "IC50", "setting": "134 cancer cell lines [1]; Homo sapiens, SK-N-FI, read-out: IC50 in cell proliferation assay, cell line SK-N-FI", "result": 4.06, "unit": "µM"}, {"measurement": "IC50", "setting": "134 cancer cell lines [1]; Homo sapiens, SK-N-MC, read-out: IC50 in cell proliferation assay, cell line SK-N-MC", "result": 4.62, "unit": "µM"}, {"measurement": "IC50", "setting": "134 cancer cell lines [1]; Homo sapiens, SK-N-SH, read-out: IC50 in cell proliferation assay, cell line SK-N-SH (ALK p.F1174L)", "result": 2.8, "unit": "µM"}, {"measurement": "IC50", "setting": "134 cancer cell lines [1]; Homo sapiens, SNU-5, read-out: IC50 in cell proliferation assay, cell line SNU-5 (MET amplification)", "result": 9.58, "unit": "µM"}, {"measurement": "IC50", "setting": "134 cancer cell lines [1]; Homo sapiens, SNU-16, read-out: IC50 in cell proliferation assay, cell line SNU-16 (FGFR2 amplification)", "result": 2.13, "unit": "µM"}, {"measurement": "IC50", "setting": "134 cancer cell lines [1]; Homo sapiens, SNU-C2B, read-out: IC50 in cell proliferation assay, cell line SNU-C2B (EGFR p.R165Q)", "result": 8.12, "unit": "µM"}, {"measurement": "IC50", "setting": "134 cancer cell lines [1]; Homo sapiens, SU-DHL-1, read-out: IC50 in cell proliferation assay, cell line SU-DHL-1 (NPM1-ALK)", "result": 0.607, "unit": "µM"}, {"measurement": "IC50", "setting": "134 cancer cell lines [1]; Homo sapiens, SU-DHL-6, read-out: IC50 in cell proliferation assay, cell line SU-DHL-6", "result": 7.74, "unit": "µM"}, {"measurement": "IC50", "setting": "134 cancer cell lines [1]; Homo sapiens, SUP-T1, read-out: IC50 in cell proliferation assay, cell line SUP-T1", "result": 11, "unit": "µM"}, {"measurement": "IC50", "setting": "134 cancer cell lines [1]; Homo sapiens, SW48, read-out: IC50 in cell proliferation assay, cell line SW48 (EGFR p.G719S)", "result": 5.31, "unit": "µM"}, {"measurement": "IC50", "setting": "134 cancer cell lines [1]; Homo sapiens, SW480, read-out: IC50 in cell proliferation assay, cell line SW480", "result": 6.93, "unit": "µM"}, {"measurement": "IC50", "setting": "134 cancer cell lines [1]; Homo sapiens, SW626, read-out: IC50 in cell proliferation assay, cell line SW626", "result": 7.38, "unit": "µM"}, {"measurement": "IC50", "setting": "134 cancer cell lines [1]; Homo sapiens, SW780, read-out: IC50 in cell proliferation assay, cell line SW780 (FGFR3-BAIAP2L1)", "result": 2.85, "unit": "µM"}, {"measurement": "IC50", "setting": "134 cancer cell lines [1]; Homo sapiens, SW837, read-out: IC50 in cell proliferation assay, cell line SW837", "result": 8.38, "unit": "µM"}, {"measurement": "IC50", "setting": "134 cancer cell lines [1]; Homo sapiens, SW872, read-out: IC50 in cell proliferation assay, cell line SW872 (BRAF p.V600E)", "result": 6.09, "unit": "µM"}, {"measurement": "IC50", "setting": "134 cancer cell lines [1]; Homo sapiens, SW900, read-out: IC50 in cell proliferation assay, cell line SW900", "result": 6.64, "unit": "µM"}, {"measurement": "IC50", "setting": "134 cancer cell lines [1]; Homo sapiens, SW948, read-out: IC50 in cell proliferation assay, cell line SW948", "result": 9.44, "unit": "µM"}, {"measurement": "IC50", "setting": "134 cancer cell lines [1]; Homo sapiens, SW982, read-out: IC50 in cell proliferation assay, cell line SW982 (BRAF p.V600E)", "result": 5.31, "unit": "µM"}, {"measurement": "IC50", "setting": "134 cancer cell lines [1]; Homo sapiens, SW-620, read-out: IC50 in cell proliferation assay, cell line SW620", "result": 6.33, "unit": "µM"}, {"measurement": "IC50", "setting": "134 cancer cell lines [1]; Homo sapiens, T98G, read-out: IC50 in cell proliferation assay, cell line T98G", "result": 5.59, "unit": "µM"}, {"measurement": "IC50", "setting": "134 cancer cell lines [1]; Homo sapiens, TCC-SUP, read-out: IC50 in cell proliferation assay, cell line TCCSUP", "result": 6.42, "unit": "µM"}, {"measurement": "IC50", "setting": "134 cancer cell lines [1]; Homo sapiens, THP-1, read-out: IC50 in cell proliferation assay, cell line THP-1", "result": 12.9, "unit": "µM"}, {"measurement": "IC50", "setting": "134 cancer cell lines [1]; Homo sapiens, U2OS, read-out: IC50 in cell proliferation assay, cell line U2OS", "result": 4.45, "unit": "µM"}, {"measurement": "IC50", "setting": "134 cancer cell lines [1]; Homo sapiens, U-87 MG, read-out: IC50 in cell proliferation assay, cell line U-87MG ATCC", "result": 7.08, "unit": "µM"}, {"measurement": "IC50", "setting": "134 cancer cell lines [1]; Homo sapiens, U-118-MG, read-out: IC50 in cell proliferation assay, cell line U-118MG", "result": 6.88, "unit": "µM"}, {"measurement": "IC50", "setting": "134 cancer cell lines [1]; Homo sapiens, UMUC3, read-out: IC50 in cell proliferation assay, cell line UM-UC-3", "result": 6.87, "unit": "µM"}, {"measurement": "IC50", "setting": "134 cancer cell lines [1]; Hs766T, read-out: IC50 in cell proliferation assay, Hs 766T cell line", "result": 7.08, "unit": "µM"}, {"measurement": "IC50", "setting": "134 cancer cell lines [1]; L-82, read-out: IC50 in cell proliferation assay, L-82 cell line (NPM1-ALK)", "result": 0.125, "unit": "µM"}, {"measurement": "IC50", "setting": "134 cancer cell lines [1]; Rh30, read-out: IC50 in cell proliferation assay, cell line Rh30", "result": 4.64, "unit": "µM"}, {"measurement": "IC50", "setting": "134 cancer cell lines [1]; read-out: IC50 in cell proliferation assay, 11-18 cell line (EGFR p.L858R)", "result": 4.17, "unit": "µM"}, {"measurement": "IC50", "setting": "134 cancer cell lines [1]; read-out: IC50 in cell proliferation assay, Hs 852.T cell line", "result": 4.09, "unit": "µM"}, {"measurement": "IC50", "setting": "134 cancer cell lines [1]; read-out: IC50 in cell proliferation assay, JAR cell line", "result": 5.04, "unit": "µM"}, {"measurement": "IC50", "setting": "134 cancer cell lines [1]; read-out: IC50 in cell proliferation assay, cell line 5637", "result": 5.56, "unit": "µM"}, {"measurement": "IC50", "setting": "134 cancer cell lines [1]; read-out: IC50 in cell proliferation assay, cell line A-388", "result": 10.3, "unit": "µM"}, {"measurement": "IC50", "setting": "134 cancer cell lines [1]; read-out: IC50 in cell proliferation assay, cell line DB", "result": 10.5, "unit": "µM"}, {"measurement": "IC50", "setting": "134 cancer cell lines [1]; read-out: IC50 in cell proliferation assay, cell line DEL (NPM1-ALK)", "result": 0.216, "unit": "µM"}, {"measurement": "IC50", "setting": "134 cancer cell lines [1]; read-out: IC50 in cell proliferation assay, cell line ES-2 (BRAF p.V600E)", "result": 4.86, "unit": "µM"}, {"measurement": "IC50", "setting": "134 cancer cell lines [1]; read-out: IC50 in cell proliferation assay, cell line PA-1", "result": 3.03, "unit": "µM"}, {"measurement": "IC50", "setting": "134 cancer cell lines [1]; read-out: IC50 in cell proliferation assay, cell line PC-3", "result": 11, "unit": "µM"}, {"measurement": "IC50", "setting": "134 cancer cell lines [1]; read-out: IC50 in cell proliferation assay, cell line RD", "result": 5.09, "unit": "µM"}, {"measurement": "IC50", "setting": "134 cancer cell lines [1]; read-out: IC50 in cell proliferation assay, cell line RKO (BRAF p.V600E)", "result": 4.68, "unit": "µM"}, {"measurement": "IC50", "setting": "134 cancer cell lines [1]; read-out: IC50 in cell proliferation assay, cell line RL", "result": 10.9, "unit": "µM"}, {"measurement": "IC50", "setting": "134 cancer cell lines [1]; read-out: IC50 in cell proliferation assay, cell line RT-4 (FGFR3-TACC3)", "result": 2.94, "unit": "µM"}, {"measurement": "IC50", "setting": "134 cancer cell lines [1]; read-out: IC50 in cell proliferation assay, cell line SR (NPM1-ALK)", "result": 0.72, "unit": "µM"}, {"measurement": "IC50", "setting": "134 cancer cell lines [1]; read-out: IC50 in cell proliferation assay, cell line T24", "result": 7.12, "unit": "µM"}, {"measurement": "IC50", "setting": "134 cancer cell lines [1]; read-out: IC50 in cell proliferation assay, cell line TT (RET p.C634W)", "result": 9.26, "unit": "µM"}, {"measurement": "IC50", "setting": "134 cancer cell lines [1]; read-out: IC50 in cell proliferation assay, cell line VA-ES-BJ", "result": 6.41, "unit": "µM"}, {"measurement": "IC50", "setting": "134 cancer cell lines [2]", "result": 7.82, "unit": "µM"}]}
